Measurements from PubChem BioAssay AID2060495 (Molecular Pharmacology Branch, DTP, NCI, 2025).

Tested on: 521955-158-R2-J5-PDC complex spheroid viability
Assay: Anticancer human tumor 521955-158-R2-J5-PDC patient-derived pancreatic carcinoma cell line growth inhibition [GQUAD]
Conditions: for IC50: curve of first compound; for viability, T/C: stronger effect = lower value; active = viability on the fitted dose curve at most 10% of control; inactive = the rest
Text: DNA G-quadruplex Stabilizer Agents in Combinations in Complex Spheroids
A high-throughput screen of multi-cell type tumor spheroids was designed to identify active combinations of DNA G-quadruplex stabilizer agents and targeted small molecules. Complex spheroids include a stromal component modeled by human endothelial cells (HUVEC) and fibroblasts modeled by human mesenchymal stem cells (MSCs). The concentration ranges selected for each drug and investigational agent were based upon clinically achievable concentrations if the clinical Cmax of the agent was known.
Compounds. The drugs and investigational agents: pidnarulex (CX-5461; NSC782164), APTO-253 (NSC789042), BRACO-19 (NSC847499), peposertib (NSC802822), ceralasertib (NSC780249), elimusertib (NSC800525), camonsertib (NSC841442), AZD-1390 (NSC803789), olaparib (NSC753686), talazoparib (NSC767125), ART-558 (NSC835418), sotorasib (NSC818433), MRTX-1133 (NSC836407), SN-38 (NSC673596), topotecan (NSC609699), etoposide (NSC141540), doxorubicin (NSC123127), gemcitabine (NSC613327), 5-fluorouracil (NSC19893), paclitaxel (NSC125973), vemurafenib (NSC761431), panobinostat (NSC761190), R-306465 (JNJ-16241199; NSC773264), adavosertib (NSC754352), TP-3654 (NSC805149), carboplatin (NSC241240), KSQ-4279 (NSC840948), and staurosporine (NSC755774) were obtained from the National Cancer Institute (NCI) Developmental Therapeutics Program Chemical Repository (34). The FDA-approved anticancer drug set is available from the NCI Developmental Therapeutics Program. […] The stock solutions were prepared in dimethyl sulfoxide (DMSO, Sigma-Aldrich, St. Louis, MO, cat. D2650) at 800-fold the tested concentration and stored at -70 degrees C prior to their use. All drugs and investigational agents were tested over a range starting from a high concentration at or near the clinical Cmax and decreasing in half-log increments. If the clinical Cmax for an agent had not been determined, the highest concentration tested was 10 microM.
2.3 Cell Culture. All cells were maintained in an incubator at 37 degrees C and 5% CO2 with 95% humidity. The PDC lines were cultured according to standard operating procedures established by the NCI PDMR. All PDCs were thawed and cultured in Matrigel-coated flasks prepared with a working solution of 1X Ham's F-12 nutrient mix, without supplementation (Invitrogen, cat. 11765054), 100 U/mL penicillin-streptomycin (Invitrogen, cat. 15140122), and 2.5% Matrigel (Corning Inc., cat. 354248) for the first three passages. The 857933-349-R-J2-PDC line was cultured in 6C/Colon 1B media, which includes advanced DMEM/F-12 (Thermo Fisher Scientific, cat. 12634028), 10 mM HEPES (Thermo Fisher Scientific, cat. 15630080), 1X GlutaMAX supplement (Thermo Fisher Scientific, cat. 35050061), 0.1 mg/mL primocin (InvivoGen, cat. ant-pm-2), 10% defined fetal bovine serum, heat inactivated (HyClone Laboratories Inc., cat. SH30070.03HI), 50% L-WRN conditioned media (ATCC, cat. CRL-3276), 1.25 mM N-Acetyl-L-cysteine (Sigma-Aldrich, cat. A9165), 10 mM nicotinamide (Sigma-Aldrich, cat. N0636), 1X B-27 supplement (Thermo Fisher Scientific, cat. 17504044), 1X N-2 supplement (Thermo Fisher Scientific, cat. 17502048), 10 microM Y-27632 dihydrochloride (Tocris Bioscience, cat. 1254), and 50 ng/mL human EGF recombinant protein (Thermo Fisher Scientific, cat. PHG0311). The 485176-168-R4-J1-PDC line was cultured in Panc media, which includes all 6C/Colon 1B media components plus 100 ng/mL human FGF-10 (Thermo Fisher Scientific, cat. 100-26), 500 nM SB-431542 (Selleckchem, cat. S1067), and gastrin (Tocris, cat. 3006).
[…]

[1] = second compound 0.0316 µM, first compound 0.0316 µM
[2] = second compound 0.0316 µM, first compound 0.316 µM
[3] = second compound 0.1 µM, first compound 0.0316 µM
[4] = second compound 0.1 µM, first compound 0.316 µM
[5] = second compound 0.316 µM, first compound 0.0316 µM
[6] = second compound 0.316 µM, first compound 0.316 µM
[7] = second compound 1 µM, first compound 0.0316 µM
[8] = second compound 1 µM, first compound 0.316 µM
[9] = second compound 3.16 µM, first compound 0.0316 µM
[10] = second compound 3.16 µM, first compound 0.316 µM
[11] = second compound 10 µM, first compound 0.0316 µM
[12] = second compound 10 µM, first compound 0.316 µM
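Note: spheroids exposed to agents for one week before reading.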

COc1cc(C2c3cc4c(cc3C(OC3OC5COC(C)OC5C(O)C3O)C3COC(=O)C23)OCO4)cc(OC)c1O (centres undefined) + Cc1cnc(CNC(=O)c2c(=O)c3ccc(N4CCCN(C)CC4)nc3n3c2sc2ccccc23)cn1
active: viability, T/C (second compound 0.0316 µM, first compound 10 µM) 9.69% | viability, T/C (second compound 1 µM, first compound 10 µM) 10.2% | viability, T/C (second compound 3.16 µM, first compound 10 µM) 8.61%
340 nM: IC50 (second compound 0.1 µM)
< 31.6 nM: IC50 (second compound 0.316 µM) | IC50 (second compound 1 µM) | IC50 (second compound 3.16 µM) | IC50 (second compound 10 µM)
241 nM: IC50 (second compound 0.0316 µM)
inactive: viability, T/C [1] 84.4% | viability, T/C (second compound 0.0316 µM, first compound 0.1 µM) 70.8% | viability, T/C [2] 42.8% | viability, T/C (second compound 0.0316 µM, first compound 1 µM) 23.2% | viability, T/C (second compound 0.0316 µM, first compound 3.16 µM) 12.1% | viability, T/C [3] 59.2% | viability, T/C (second compound 0.1 µM, first compound 0.1 µM) 55.3% | viability, T/C [4] 49.3% | viability, T/C (second compound 0.1 µM, first compound 1 µM) 37.8% | viability, T/C (second compound 0.1 µM, first compound 3.16 µM) 16% | viability, T/C (second compound 0.1 µM, first compound 10 µM) 11% | viability, T/C [5] 45.2% | viability, T/C (second compound 0.316 µM, first compound 0.1 µM) 42.2% | viability, T/C [6] 36.5% | viability, T/C (second compound 0.316 µM, first compound 1 µM) 19.8% | viability, T/C (second compound 0.316 µM, first compound 3.16 µM) 14% | viability, T/C (second compound 0.316 µM, first compound 10 µM) 12.1% | viability, T/C [7] 23.2% | viability, T/C (second compound 1 µM, first compound 0.1 µM) 28.4% | viability, T/C [8] 19.2% | viability, T/C (second compound 1 µM, first compound 1 µM) 17.4% | viability, T/C (second compound 1 µM, first compound 3.16 µM) 10.3% | viability, T/C [9] 19.2% | viability, T/C (second compound 3.16 µM, first compound 0.1 µM) 18% | viability, T/C [10] 19.6% | viability, T/C (second compound 3.16 µM, first compound 1 µM) 17% | viability, T/C (second compound 3.16 µM, first compound 3.16 µM) 6.27% | viability, T/C [11] 15.6% | viability, T/C (second compound 10 µM, first compound 0.1 µM) 17.8% | viability, T/C [12] 18.8% | viability, T/C (second compound 10 µM, first compound 1 µM) 16.7% | viability, T/C (second compound 10 µM, first compound 3.16 µM) 10.2% | viability, T/C (second compound 10 µM, first compound 10 µM) 8.93%

Cn1ncnc1[C@H]1c2n[nH]c(=O)c3cc(F)cc(c23)N[C@@H]1c1ccc(F)cc1 + Cc1cnc(CNC(=O)c2c(=O)c3ccc(N4CCCN(C)CC4)nc3n3c2sc2ccccc23)cn1
< 0.999 nM: IC50 (second compound 0.316 µM) | IC50 (second compound 1 µM) | IC50 (second compound 3.16 µM) | IC50 (second compound 10 µM)
inactive: viability, T/C (second compound 0.0316 µM, first compound 0.000999 µM) 85.8% | viability, T/C (second compound 0.0316 µM, first compound 0.00316 µM) 70.8% | viability, T/C (second compound 0.0316 µM, first compound 0.00999 µM) 67.1% | viability, T/C [1] 62% | viability, T/C (second compound 0.0316 µM, first compound 0.0999 µM) 53.9% | viability, T/C [2] 57.5% | viability, T/C (second compound 0.1 µM, first compound 0.000999 µM) 62.3% | viability, T/C (second compound 0.1 µM, first compound 0.00316 µM) 77.7% | viability, T/C (second compound 0.1 µM, first compound 0.00999 µM) 54.8% | viability, T/C [3] 48.2% | viability, T/C (second compound 0.1 µM, first compound 0.0999 µM) 54.2% | viability, T/C [4] 55.5% | viability, T/C (second compound 0.316 µM, first compound 0.000999 µM) 44.1% | viability, T/C (second compound 0.316 µM, first compound 0.00316 µM) 48.6% | viability, T/C (second compound 0.316 µM, first compound 0.00999 µM) 44.7% | viability, T/C [5] 34.2% | viability, T/C (second compound 0.316 µM, first compound 0.0999 µM) 31.3% | viability, T/C [6] 24.3% | viability, T/C (second compound 1 µM, first compound 0.000999 µM) 26.8% | viability, T/C (second compound 1 µM, first compound 0.00316 µM) 25.1% | viability, T/C (second compound 1 µM, first compound 0.00999 µM) 23.1% | viability, T/C [7] 20% | viability, T/C (second compound 1 µM, first compound 0.0999 µM) 21% | viability, T/C [8] 16.6% | viability, T/C (second compound 3.16 µM, first compound 0.000999 µM) 16% | viability, T/C (second compound 3.16 µM, first compound 0.00316 µM) 19.6% | viability, T/C (second compound 3.16 µM, first compound 0.00999 µM) 20.8% | viability, T/C [9] 20.4% | viability, T/C (second compound 3.16 µM, first compound 0.0999 µM) 15.3% | viability, T/C [10] 14% | viability, T/C (second compound 10 µM, first compound 0.000999 µM) 20.7% | viability, T/C (second compound 10 µM, first compound 0.00316 µM) 15.7% | viability, T/C (second compound 10 µM, first compound 0.00999 µM) 21.8% | viability, T/C [11] 19.8% | viability, T/C (second compound 10 µM, first compound 0.0999 µM) 15.7% | viability, T/C [12] 17.2%
> 316 nM: IC50 (second compound 0.0316 µM)
316 nM: IC50 (second compound 0.1 µM)
